Assay results taken from patent US6458580B1, “Fungal sulphur source and method of using the same” (Commonwealth Scientific and Industrial Research Organisation, priority 1997, dated 2002).
“And” between values parts separate entries of the source, which are not always exact repeats. Identical values can stand only once.

What was measured:
[1] = tested on: Total Bacteria; test: Effect of infusion on total bacteria in rumen fluid; type: in vivo; set-up: Total Bacteria, MPA: unit not given here; settings: individual sheep and Aver. n = 13; for Total Bacteria, MPA: MPA infused at 192 mg Sulphur/sheep/day; for Total Bacteria, log (+): versus control period
Procedure: Feed was prepared as previously described (see example 4). Initially 22 sheep were fed 1 kg of alkali straw/day in the animal house for 4 days to select out sheep not eating the diet. 19 sheep were weighted and transferred to metabolism cages and feed the alkali straw diet ad-lib. Sheep were fed and on the following day the feed refusal weighted and if less then 100 g remained a further 100 g was fed; if 100-200g of feed remained the sheep was given the same amount of feed; if over 200 g of feed was left the sheep was given 100 g less feed. Over the following week another 6 sheep were moved out of the experiment (usually due to very low or erratic intakes). […] After 14 days infusion the collection period of 7 days commenced. At the end of the collection period samples of rumen digesta were taken for microbiology and other analyses. Rumen fluid was collected and fungal zoospores and total bacteria assessed as described in example 4 (the total bacteria were assessed on the same medium but without antibiotics). Cellulolytic bacteria were assessed by a most probable number count. Rumen fluid was serially diluted and subsamples of each dilution inoculated into 5 culture tubes containing an anaerobic medium containing rumen fluid and strips of filter paper. After incubation the presence of cellulolytic bacteria was detected by degradation of the paper and the numbers of positive tubes compared to tables to give a number of these bacteria in the original sample. Following the last sampling the infusion was stopped in the first group of sheep and on the following day the infusion treatment was begun in the other group of seven sheep. The second period (the crossover) was conducted in the same way as the first period with the same samples being taken at the same times.

[2] = tested on: rumen fungi; test: Effect of different intra-ruminal doses on fungal zoospore numbers in the rumen; type: in vivo, sheep
Procedure: Six cross-bred sheep [[…]] having rumen cannula were moved metabolism cages equipped with automatic feeders. They were given eight equal buckets of feed a day (three hourly) and offered water ad-lib. The sheep were offered 1.1 kg of a low sulphur feed (see below). After a period of three weeks on the diet rumen digesta was collected and rumen fluid (150 ml)was taken for zoospore counts. (An extra 100 ml of rumen digest was taken from each animal combined and mixed and 100 ml returned to each rumen to minimise differences between animals.) Zoospores were assessed by standard methods for handling anaerobic fungi. Serial dilutions of rumen fluid were prepared using an anaerobic diluent. Agar roll tubes were inoculated using a syringe with 0.2 ml of either a dilution of rumen fluid or undiluted rumen fluid. The media used was one mimicking the rumen environment but without added rumen fluid and with antibiotics (penicillin and streptomycin) added to stop overgrowth by rumen bacteria. After incubation the number of thallus forming units were counted and the number of zoospores in the rumen fluid calculated. […] The sheep were initially infused at the rate of 0.4 mMoles sulphur per day per 4 liters (ie 0.1 mM in rumen) This was equivalent to 12.67 mg Sulphur/day. The same protocols were used with successively higher doses. […] Each infusion was for one weeks before sampling rumen fluid and infusing the higher dose. […] Wheat straw was milled and approximately 40 kg quantities were transferred from the Gell feed mill to a mixer where 4 l of 40% NaOH was added while mixing. The feed was bagged (approximately two bags per 40 kg) and left for several days before a minerals mix was added. Two bags were placed in the mixer and the compounds in Table 3 were added. Trace elements were made up in 140 ml in water and were added to the urea which was previously dissolved in 25 Liters of water. This solution was then added to two bags of alkali treated feed while mixing. The remaining dry chemicals were mixed and the appropriate amount added (1.638 kg) onto the mixing feed. […]

[3] = tested on: Neocallimastix isolates LM1 and TGB1; Piromyces isolates SM1, CS15 and TZB2; test: In vitro growth of selected fungal isolates at different doses of MPA; type: cell-based; settings: MPA 0-1.6 mM, media with 0.5% CHO, FIGS. 2a and 2b
Procedure: Five isolates were recovered in standard media from cryopreservation and one isolate was obtained from the culture collection. Table 2 below indicates nature of isolates.
Each isolate was transferred from standard media to a modification of the low sulphur media described in Example 1. Carbohydrates (glucose+cellobiose) were added to give either 0.2% (in subculture phase ) or 0.5% (in test phase)
. Triplicate tubes of the three concentrations were inoculated with each isolate and after 3-4 days subcultured using the tubes with the best apparent growth. […] This was to be the final assessment however as some growth was obtained in the 0 controls so all tubes were subcultured again into the same type of media. After a weeks incubation growth was determined by the decrease in media pH as described in Example 1.

Structure (SMILES): O=C(O)CCS [MPA, 3-mercaptopropanoic acid]
- Total Bacteria, MPA [1]: 10.50 × 10^8 (2×) and 8.07 × 10^8 and 6.83 × 10^8 and 7.50 × 10^8 and 10.00 × 10^8 and 7.17 × 10^8 and 5.87 × 10^8 and 12.00 × 10^8 and 14.50 × 10^8 and 10.83 × 10^8 and 10.67 × 10^8 and 6.33 × 10^8
- Total Bacteria, MPA ([1]; mean): 9.29 × 10^8
- Total Bacteria, log (+) [1]: 0.27 log and 0.31 log (2×) and −0.34 log (2×) and −0.17 log and 0.02 log and 0.05 log and 0.25 log (2×) and 0.29 log and 0.33 log and 0.10 log
- Total Bacteria, log (+) ([1]; mean): 0.10 log
- levels of fungi ([2]; dose of 0.75 mM (95 mg S/day), four of the six animals): ≈ 1000 /ml
- optimum level of MPA ([2]; rumen concentration, 190 mg S/day, very low S content diet): 1.5 mM
- relation between concentration of MPA in the rumen and numbers of zoospores in rumen fluid ([2]; sheep on low sulphur diet (0.052% sulphur), 0-5.0 mM in rumen, seven days per dose, FIG. 3): clear dose response
- growth response of sheep versus non-sheep isolates [3]: no clear difference between the sheep and non-sheep isolates
